Assay results reported in US10047096B2, “Substituted pyridobenzodiazepinone-derivatives and use thereof” (Bayer Pharma Aktiengesellschaft, priority 2014, dated 2018).

What was measured:
human PDGFRβ = human PDGFRβ (Homo sapiens (Human), UniProt P09619); assay: PDGFRβ kinase assay (PDGFRβ-HTRF); format: biochemical; details: 10 μM ATP; some mean values from multiple determinations
Method in brief: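 GST-fused human PDGFRβ fragment (R561-L1106) from Sf9 cells was preincubated 15 min with compound in 50 mM HEPES pH 7.5, 10 mM MgCl2, 2.5 mM DTT, 0.01% Triton X-100; substrate was biotinylated poly-Glu,Tyr (4:1).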

[1] = molecular target: pPDGFRβ in normal human dermal fibroblasts (NHDF) (Homo sapiens (Human), UniProt P09619); assay: Cellular pPDGFRβ inhibition assay; format: cell-based; details: NHDF stimulated with 50 ng/ml PDGF-BB, 1 h
Sequence of pPDGFRβ in normal human dermal fibroblasts (NHDF) (P09619 33-1106): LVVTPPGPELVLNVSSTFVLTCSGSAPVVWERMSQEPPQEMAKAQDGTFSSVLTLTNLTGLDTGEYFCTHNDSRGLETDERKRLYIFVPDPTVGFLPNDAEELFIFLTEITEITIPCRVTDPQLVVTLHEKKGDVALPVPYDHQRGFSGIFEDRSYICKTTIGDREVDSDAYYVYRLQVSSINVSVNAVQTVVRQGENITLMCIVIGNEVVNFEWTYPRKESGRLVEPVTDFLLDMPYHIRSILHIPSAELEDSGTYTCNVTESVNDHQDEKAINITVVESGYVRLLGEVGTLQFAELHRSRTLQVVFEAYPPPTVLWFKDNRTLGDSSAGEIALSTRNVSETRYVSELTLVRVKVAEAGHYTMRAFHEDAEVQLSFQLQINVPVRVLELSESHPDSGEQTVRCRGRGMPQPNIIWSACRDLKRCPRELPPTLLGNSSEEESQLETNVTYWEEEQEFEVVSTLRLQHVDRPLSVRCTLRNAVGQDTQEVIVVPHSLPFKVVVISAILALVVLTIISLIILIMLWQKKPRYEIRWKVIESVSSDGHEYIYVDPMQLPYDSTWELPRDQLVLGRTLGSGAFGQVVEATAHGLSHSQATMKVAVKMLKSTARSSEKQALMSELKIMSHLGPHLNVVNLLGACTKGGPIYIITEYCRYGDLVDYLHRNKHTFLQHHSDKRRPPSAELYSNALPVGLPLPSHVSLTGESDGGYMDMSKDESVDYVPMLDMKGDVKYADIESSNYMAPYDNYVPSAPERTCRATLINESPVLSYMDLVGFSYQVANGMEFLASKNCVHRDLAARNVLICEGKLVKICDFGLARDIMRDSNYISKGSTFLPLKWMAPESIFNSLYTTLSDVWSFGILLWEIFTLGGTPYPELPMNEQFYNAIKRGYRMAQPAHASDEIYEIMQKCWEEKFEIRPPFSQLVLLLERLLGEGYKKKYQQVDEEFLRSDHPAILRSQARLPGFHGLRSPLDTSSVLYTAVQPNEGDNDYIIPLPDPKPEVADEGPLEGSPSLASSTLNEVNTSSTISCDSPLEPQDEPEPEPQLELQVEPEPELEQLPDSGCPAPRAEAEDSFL
Experimental: Thereafter, 50 ng/ml recombinant human PDGF-BB (R&D Systems, Cat. No. 220-BB-050) and a dilution series of the test substances to be examined in DMSO were added to the cells. The total volume per well was 100 μl. After incubation under the abovementioned conditions for one hour, the Opti-MEM® I Reduced Serum Medium was tapped out and discarded. Subsequently, the lysis buffer [Phospho PDGFRβ (Tyr751) Assay Whole Cell Lysate Kit, MSD, Cat. No. K150DVD-2] was made up according to the manufacturer's instructions and 70 μl of this mixture per well were added. The lysed cell samples were either stored at −20° C. or analysed immediately after the lysis in a Meso Scale SECTOR® Imager 2400 according to the abovementioned manufacturer's instructions. The measurement data were presented as percentage PDGFRβ stimulation compared to PDGF-BB-stimulated but substance-untreated cells. The IC50 values were calculated by employing the nonlinear regression (curve fit) function of GraphPad Prism 6 (La Jolla, Calif., USA).

Sequence of human PDGFRβ (P09619 561-1106): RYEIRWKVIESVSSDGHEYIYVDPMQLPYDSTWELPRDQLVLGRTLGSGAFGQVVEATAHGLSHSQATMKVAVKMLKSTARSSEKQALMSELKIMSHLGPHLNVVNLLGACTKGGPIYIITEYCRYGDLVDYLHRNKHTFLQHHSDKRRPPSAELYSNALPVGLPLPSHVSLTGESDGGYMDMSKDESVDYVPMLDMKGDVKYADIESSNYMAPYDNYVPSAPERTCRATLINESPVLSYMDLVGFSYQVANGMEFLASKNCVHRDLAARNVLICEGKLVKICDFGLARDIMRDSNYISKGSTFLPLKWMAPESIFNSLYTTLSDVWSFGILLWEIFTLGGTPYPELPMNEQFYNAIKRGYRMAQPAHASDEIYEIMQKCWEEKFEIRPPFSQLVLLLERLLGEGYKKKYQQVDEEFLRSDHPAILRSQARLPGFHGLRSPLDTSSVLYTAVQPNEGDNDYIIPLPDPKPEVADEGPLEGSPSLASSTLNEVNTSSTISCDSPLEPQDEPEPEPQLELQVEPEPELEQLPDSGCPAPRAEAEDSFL

An IC50 (human PDGFRβ) of 0.826 nM and an IC50 [1] of 43.9 nM were found for `Cc1cc(F)c(Nc2ccnc3c2C(=O)Nc2cc(CNC(CO)C(C)C)ccc2N3)cc1O` (racemic) [Example 75, rac-4-[(2-Fluoro-5-hydroxy-4-methylphenyl)amino]-8-{[(1-hydroxy-3-methylbutan-2-yl)amino]methyl}-6,11-dihydro-5H-pyrido[2,3-b][1,5]benzodiazepin-5-one] in this work.

An IC50 (human PDGFRβ) of 2.02 nM and an IC50 [1] of 40.9 nM were found for `Cc1ccc(O)cc1Nc1ccnc2c1C(=O)Nc1cc(CNC(C)C)ccc1N2` [Example 19, 4-[(5-Hydroxy-2-methylphenyl)amino]-8-[(isopropylamino)methyl]-6,11-dihydro-5H-pyrido[2,3-b][1,5]benzodiazepin-5-one] in this work.

An IC50 (human PDGFRβ) of 0.953 nM and an IC50 [1] of 21.6 nM were found for `CCN(CC)Cc1ccc2c(c1)NC(=O)c1c(Nc3cc(O)c(C)cc3F)ccnc1N2` [Example 28, 8-[(Diethylamino)methyl]-4-[(2-fluoro-5-hydroxy-4-methylphenyl)amino]-6,11-dihydro-5H-pyrido[2,3-b][1,5]benzodiazepin-5-one] in this work.

An IC50 (human PDGFRβ) of 2.89 nM and an IC50 [1] of 35.3 nM were found for `Cc1cc(F)c(Nc2ccnc3c2C(=O)Nc2cc(CN4CCOCC4)ccc2N3)cc1O` [Example 29, 4-[(2-Fluoro-5-hydroxy-4-methylphenyl)amino]-8-(morpholin-4-ylmethyl)-6,11-dihydro-5H-pyrido[2,3-b][1,5]benzodiazepin-5-one] in this work.

An IC50 (human PDGFRβ) of 2.17 nM and an IC50 [1] of 111 nM were found for `Cc1cc(F)c(Nc2ccnc3c2C(=O)Nc2cc(CNC4CC4)ccc2N3)cc1O` [Example 30, 8-[(Cyclopropylamino)methyl]-4-[(2-fluoro-5-hydroxy-4-methylphenyl)amino]-6,11-dihydro-5H-pyrido[2,3-b][1,5]benzodiazepin-5-one] in this work.

An IC50 (human PDGFRβ) of 1.22 nM and an IC50 [1] of 33.3 nM were found for `CCNCc1ccc2c(c1)NC(=O)c1c(Nc3cc(O)c(C)cc3F)ccnc1N2` [Example 31, 8-[(Ethylamino)methyl]-4-[(2-fluoro-5-hydroxy-4-methylphenyl)amino]-6,11-dihydro-5H-pyrido[2,3-b][1,5]benzodiazepin-5-one] in this work.

An IC50 (human PDGFRβ) of 3.25 nM and an IC50 [1] of 22.8 nM were found for `Cc1cc(F)c(Nc2ccnc3c2C(=O)Nc2cc(CN4CCCC4)ccc2N3)cc1O` [Example 32, 4-[(2-Fluoro-5-hydroxy-4-methylphenyl)amino]-8-(pyrrolidin-1-ylmethyl)-6,11-dihydro-5H-pyrido[2,3-b][1,5]benzodiazepin-5-one] in this work.

An IC50 (human PDGFRβ) of 2.44 nM and an IC50 [1] of 140 nM were found for `Cc1ccc(O)cc1Nc1ccnc2c1C(=O)Nc1cc(CN3CCC(O)CC3)ccc1N2` [Example 42, 4-[(5-Hydroxy-2-methylphenyl)amino]-8-[(4-hydroxypiperidin-1-yl)methyl]-6,11-dihydro-5H-pyrido[2,3-b][1,5]benzodiazepin-5-one] in this work.

An IC50 (human PDGFRβ) of 0.487 nM and an IC50 [1] of 41.1 nM were found for `CCN(C)Cc1ccc2c(c1)NC(=O)c1c(Nc3cc(O)c(C)cc3F)ccnc1N2` [Example 49, 8-{[Ethyl(methyl)amino]methyl}-4-[(2-fluoro-5-hydroxy-4-methylphenyl)amino]-6,11-dihydro-5H-pyrido[2,3-b][1,5]benzodiazepin-5-one] in this work.

An IC50 (human PDGFRβ) of 1.13 nM and an IC50 [1] of 97.4 nM were found for `CCOCCN(CC)Cc1ccc2c(c1)NC(=O)c1c(Nc3cc(O)c(C)cc3F)ccnc1N2` [Example 50, 8-{[(2-Ethoxyethyl) (ethyl)amino]methyl}-4-[(2-fluoro-5-hydroxy-4-methylphenyl)amino]-6,11-dihydro-5H-pyrido[2,3-b][1,5]benzodiazepin-5-one] in this work.

An IC50 (human PDGFRβ) of 1.15 nM and an IC50 [1] of 22.1 nM were found for `CCN(Cc1ccc2c(c1)NC(=O)c1c(Nc3cc(O)c(C)cc3F)ccnc1N2)C(C)C` [Example 51, 8-{[Ethyl(isopropyl)amino]methyl}-4-[(2-fluoro-5-hydroxy-4-methylphenyl)amino]-6,11-dihydro-5H-pyrido[2,3-b][1,5]benzodiazepin-5-one] in this work.

An IC50 (human PDGFRβ) of 0.905 nM and an IC50 [1] of 60.7 nM were found for `CCN(CCOC)Cc1ccc2c(c1)NC(=O)c1c(Nc3cc(O)c(C)cc3F)ccnc1N2` [Example 55, 8-{[Ethyl(2-methoxyethyl)amino]methyl}-4-[(2-fluoro-5-hydroxy-4-methylphenyl)amino]-6,11-dihydro-5H-pyrido[2,3-b][1,5]benzodiazepin-5-one] in this work.

An IC50 (human PDGFRβ) of 0.68 nM and an IC50 [1] of 14.3 nM were found for `Cc1cc(F)c(Nc2ccnc3c2C(=O)Nc2cc(CN4C[C@H](O)C[C@H]4CO)ccc2N3)cc1O` [Example 64, 4-[(2-Fluoro-5-hydroxy-4-methylphenyl)amino]-8-{[(2S,4R)-4-hydroxy-2-(hydroxymethyl)pyrrolidin-1-yl]methyl}-6,11-dihydro-5H-pyrido[2,3-b][1,5]benzodiazepin-5-one] in this work.

An IC50 (human PDGFRβ) of 1.58 nM and an IC50 [1] of 11.3 nM were found for `Cc1cc(F)c(Nc2ccnc3c2C(=O)Nc2cc(CN[C@H]4CC[C@H](O)CC4)ccc2N3)cc1O` [Example 76, 4-[(2-Fluoro-5-hydroxy-4-methylphenyl)amino]-8-{[(trans-4-hydroxycyclohexyl)amino]methyl}-6,11-dihydro-5H-pyrido[2,3-b][1,5]benzodiazepin-5-one] in this work.

An IC50 (human PDGFRβ) of 0.974 nM and an IC50 [1] of 32.6 nM were found for `Cc1cc(F)c(Nc2ccnc3c2C(=O)Nc2cc(CNC(CO)CO)ccc2N3)cc1O` [Example 78, 8-{[(1,3-Dihydroxypropan-2-yl)amino]methyl}-4-[(2-fluoro-5-hydroxy-4-methylphenyl)amino]-6,11-dihydro-5H-pyrido[2,3-b][1,5]benzodiazepin-5-one] in this work.

An IC50 (human PDGFRβ) of 12.1 nM and an IC50 [1] of 890 nM were found for `CCN(CCO)C(=O)c1ccc2c(c1)NC(=O)c1c(Nc3cc(O)c(C)cc3F)ccnc1N2` [Example 162, N-Ethyl-4-[(2-fluoro-5-hydroxy-4-methylphenyl)amino]-N-(2-hydroxyethyl)-5-oxo-6,11-dihydro-5H-pyrido[2,3-b][1,5]benzodiazepine-8-carboxamide] in this work.

An IC50 (human PDGFRβ) of 2.06 nM was found for `Cc1cc(F)c(Nc2ccnc3c2C(=O)Nc2cc(CN4CC[C@H](N)C4)ccc2N3)cc1O` [Example 215, 8-{[(3S)-3-Aminopyrrolidin-1-yl]methyl}-4-[(2-fluoro-5-hydroxy-4-methylphenyl)amino]-6,11-dihydro-5H-pyrido[2,3-b][1,5]benzodiazepin-5-one] in this work.

An IC50 (human PDGFRβ) of 1.12 nM was found for `Cc1cc(F)c(Nc2ccnc3c2C(=O)Nc2cc(CN4CC[C@@H](N)C4)ccc2N3)cc1O` [Example 216, 8-{[(3R)-3-Aminopyrrolidin-1-yl]methyl}-4-[(2-fluoro-5-hydroxy-4-methylphenyl)amino]-6,11-dihydro-5H-pyrido[2,3-b][1,5]benzodiazepin-5-one] in this work.

An IC50 (human PDGFRβ) of 3.39 nM was found for `Cc1cc(F)c(Nc2ccnc3c2C(=O)Nc2cc(CN4CC[C@@H](N(C)C)C4)ccc2N3)cc1O` [Example 217, 8-{[(3R)-3-(Dimethylamino)pyrrolidin-1-yl]methyl}-4-[(2-fluoro-5-hydroxy-4-methylphenyl)amino]-6,11-dihydro-5H-pyrido[2,3-b][1,5]benzodiazepin-5-one] in this work.

An IC50 (human PDGFRβ) of 1.06 nM was found for `Cc1cc(F)c(Nc2ccnc3c2C(=O)Nc2cc(CN4CCC(N)CC4)ccc2N3)cc1O` [Example 218, 8-[(4-Aminopiperidin-1-yl)methyl]-4-[(2-fluoro-5-hydroxy-4-methylphenyl)amino]-6,11-dihydro-5H-pyrido[2,3-b][1,5]benzodiazepin-5-one] in this work.

An IC50 (human PDGFRβ) of 1.48 nM was found for `Cc1cc(F)c(Nc2ccnc3c2C(=O)Nc2cc(CN4CCC[C@H](N)C4)ccc2N3)cc1O` [Example 219, 8-{[(3S)-3-Aminopiperidin-1-yl]methyl}-4-[(2-fluoro-5-hydroxy-4-methylphenyl)amino]-6,11-dihydro-5H-pyrido[2,3-b][1,5]benzodiazepin-5-one] in this work.

An IC50 (human PDGFRβ) of 2.15 nM was found for `Cc1cc(F)c(Nc2ccnc3c2C(=O)Nc2cc(CN4CC[C@H](N(C)C)C4)ccc2N3)cc1O` [Example 220, 8-{[(3S)-3-(Dimethylamino)pyrrolidin-1-yl]methyl}-4-[(2-fluoro-5-hydroxy-4-methylphenyl)amino]-6,11-dihydro-5H-pyrido[2,3-b][1,5]benzodiazepin-5-one] in this work.

An IC50 (human PDGFRβ) of 1.74 nM was found for `Cc1cc(F)c(Nc2ccnc3c2C(=O)Nc2cc(CN(C)CCCO)ccc2N3)cc1O` [Example 221, 4-[(2-Fluoro-5-hydroxy-4-methylphenyl)amino]-8-{[(3-hydroxypropyl)(methyl)amino]methyl}-6,11-dihydro-5H-pyrido[2,3-b][1,5]benzodiazepin-5-one] in this work.

An IC50 (human PDGFRβ) of 1.01 nM was found for `CCN(CCCO)Cc1ccc2c(c1)NC(=O)c1c(Nc3cc(O)c(C)cc3F)ccnc1N2` [Example 222, 8-{[Ethyl(3-hydroxypropyl)amino]methyl}-4-[(2-fluoro-5-hydroxy-4-methylphenyl)amino]-6,11-dihydro-5H-pyrido[2,3-b][1,5]benzodiazepin-5-one] in this work.

An IC50 (human PDGFRβ) of 14.1 nM was found for `Cc1ccc(O)cc1Nc1ccnc2c1C(=O)Nc1cc(C(=O)NCc3cccc(Cl)c3)ccc1N2` [Example 225, N-(3-Chlorobenzyl)-4-[(5-hydroxy-2-methylphenyl)amino]-5-oxo-6,11-dihydro-5H-pyrido[2,3-b][1,5]benzodiazepine-8-carboxamide] in this work.

An IC50 (human PDGFRβ) of 1.09 nM was found for `Cc1cc(F)c(Nc2ccnc3c2C(=O)Nc2cc(CNC4CCCC4)ccc2N3)cc1O` [Example 226, 8-[(Cyclopentylamino)methyl]-4-[(2-fluoro-5-hydroxy-4-methylphenyl)amino]-6,11-dihydro-5H-pyrido[2,3-b][1,5]benzodiazepin-5-one] in this work.
